# Tested on: 293T cells
# Assay: Cytotoxicity test (CCK-8 cell viability) in 293T cells
# Type: cell-based, human
# Details: 293T cell line
# Procedure: Human undifferentiated neuroblastoma cell line SH-SY5Y and human embryonic kidney cell line (HEK)-293T were purchased from Korean Cell Line Bank (Korea) and Takara (Japan), respectively. Cells were grown in HyClone Minimal Essential Medium (MEM) and Dulbecco's Modified Eagle Medium (DMEM), respectively, supplemented with 10% (v/v) fetal bovine serum (FBS), penicillin (100 U/mL), and streptomycin ([…]). Cells were maintained in a humidified atmosphere of 95% air and 5% CO2 at 37° C. Cells were passaged 10 times at maximum. Cells were dissociated using 0.05% trypsin-EDTA solution and the cells were seeded in new culture dishes for maintenance.
# To examine the cytotoxicity of compounds described herein in human cell lines, SH-SY5Y and 293T cells were used. Approximately 8,000 cells (for 293T) and 15,000 cells (for SH-SY5Y) were plated per well of a 96-well plate (SPL Life Sciences Co., Ltd., Pocheon, Korea). After incubating at 37° C. for 24 hours in a humidified atmosphere containing 5% CO2, the culture medium was replaced by a series of concentrations of test compounds diluted in the corresponding culture medium.
# The time of co-incubation was 24 hours and six replicates were made for each measurement. Finally, 10 μL of CCK-8 reagent (Dojindo Laboratories, Rockville, MD) was added to each well, and after incubation at 37° C. for 3 minutes, the OD at 450 nm was measured using a multifunction microplate reader (Tecan Infinite M200 Pro). These measurements were compared to that of a control and expressed as a percentage of the control to calculate cell viability. The IC50 value was calculated using SPSS software. To do this, the absorbance of the blank wells with only growth medium is subtracted from the values or the wells with cells. The readout value of background (vehicle) was set as a 100% viability, and then the percent viability for each test solution was calculated.
# The data was presented as the mean value and standard error of the mean (S.E.M.). Statistical analysis was performed with the one-way ANOVA with Tukey's post hoc test (GraphPad Prism 5 software package, version 5.02, GraphPad Software Inc. USA). Significance was accepted at p<0.05.
# The cytotoxicity of the compound was evaluated by treating cells with BnH12003 and measuring cell viability.
# By treating cells with various BnH12 series compounds and measuring cell viability using the experimental procedure described in Example 2, the cytotoxicity of the compounds was evaluated.
SMILES,Cell viability test results (CCK) 10 uM,Cell viability test results (CCK) 100 uM
"C[C@H]1CC[C@@H](C(=O)O)CN1C(=O)Cc1ccc(-c2ccc(F)cc2)cc1 [BnH12002, (3R,6S)-1-(2-(4′-fluoro-8 1,l′-biphenyl9-4-yl)acetyl)-6-methylpiperidine-3-carboxylic acid]",90%<,95%<
"O=C(NO)[C@H]1CCCN1C(=O)Cc1ccc(-c2cncnc2)cc1 [BnH12015, (R)-N-hydroxy-1-(2-(4-(pyrimidin-5-yl)phenyl)acetyl) pyrrolidine-2-carboxamide]",99%<,99%<
"C[C@H]1CC[C@@H](C(=O)O)CN1C(=O)Cc1ccc2nccnc2c1 [BnH12036, (3R,6S)-6-methyl-1-(2-(quinoxalin-6-yl)acetyl) piperidine-3-carboxylic acid]",95%<,95%<
C[C@H]1CC[C@@H](C(=O)O)CN1C(=O)Cc1ccc2c(c1)OCCO2 [BnH12037],99%<,99%<
C[C@H]1CC[C@@H](C(=O)O)CN1C(=O)Cc1ccc(-c2ccccc2)cc1 [BnH12042],95%<,90%<
"C[C@H]1CC[C@@H](C(=O)O)CN1C(=O)Cc1ccc(-c2ccncc2)cc1 [BnH12043, (3R,6S)-6-methyl-1-(2-(4-(pyridin-4-yl)phenyl)acetyl) piperidine-3-carboxylic acid]",99%<,99%<
"C[C@H]1CC[C@@H](C(=O)O)CN1C(=O)Cc1ccc(-c2ccccn2)cc1 [BnH12044, (3R,6S)-6-methyl-1-(2-(4-(pyridin-2-yl)phenyl)acetyl) piperidine-3-carboxylic acid]",80%<,75%<
"C[C@H]1CC[C@@H](C(=O)O)CN1C(=O)Cc1ccc(-c2ncc(F)cn2)cc1 [BnH12049, (3R,6S)-1-(2-(4-(5-fluoropyrimidin-2-yl)phenyl)acetyl)-6-methylpiperidine-3-carboxylic acid]",90%<,85%<
"C[C@H]1CC[C@@H](C(=O)O)CN1C(=O)Cc1ccc(-c2cnc(C3CC3)nc2)cc1 [BnH12052, (3R,6S)-1-(2-(4-(2-cyclopropylpyrimidin-5-yl)phenyl)acetyl)-6-methylpiperidine-3-carboxylic acid]",80%<,75%<
"C[C@H]1CC[C@@H](C(=O)O)CN1C(=O)Cc1ccc(-c2ccncn2)cc1 [BnH12054, (3R,6S)-6-methyl-1-(2-(4-(pyrimidin-4-yl)phenyl)acetyl) piperidine-3-carboxylic acid]",99%<,99%<
"C[C@H]1CC[C@@H](C(=O)O)CN1C(=O)Cc1ccc(-c2cccs2)cc1 [BnH12055, (3R,6S)-6-methyl-1-(2-(4-(thiophen-2-yl)phenyl)acetyl) piperidine-3-carboxylic acid]",90%<,60%<
"C[C@H]1CC[C@@H](C(=O)O)CN1C(=O)Cc1ccc(-c2ccco2)cc1 [BnH12056, (3R,6S)-1-(2-(4-(furan-2-yl)phenyl)acetyl)-6-methylpiperidine-3-carboxylic acid]",95%<,90%<
"C[C@H]1CC[C@@H](C(N)=O)CN1C(=O)Cc1ccc(-c2ncc(F)cn2)cc1 [BnH12059, (3R,6S)-1-(2-(4-(5-fluoropyrimidin-2-yl)phenyl)acetyl)-6-methylpiperidine-3-carboxamide]",90%<,70%<
"C[C@H]1CC[C@@H](C(=O)O)CN1C(=O)Cc1ccc(-c2ccc([N+](=O)[O-])cc2)cc1 [BnH12077, (3R,6S)-6-methyl-1-(2-(4'-nitro-[1,1'-biphenyl]-4-yl)acetyl)piperidine-3-carboxylic acid]",99%<,60%<
"C[C@H]1CC[C@@H](C(=O)O)CN1C(=O)c1ccc(-c2cccnc2)cc1 [BnH12080, (3R,6S)-6-methyl-1-(4-(pyridin-3-yl)benzoyl) piperidine-3-carboxylic acid]",85%<,85%<
"COc1ccc(-c2ccc(CC(=O)N3C[C@H](C(=O)O)CC[C@@H]3C)cc2)cn1 [BnH12081, (3R,6S)-1-(2-(4-(6-methoxypyridin-3-yl)phenyl)acetyl)-6-methylpiperidine-3-carboxylic acid]",85%<,70%<
"C[C@H]1CC[C@@H](C(=O)O)CN1C(=O)Cc1ccc(-c2ccc(C3CC3)nc2)cc1 [BnH12082, (3R,6S)-1-(2-(4-(6-cyclopropylpyridin-3-yl)phenyl)acetyl)-6-methylpiperidine-3-carboxylic acid]",90%<,90%<
"C[C@H]1CC[C@@H](C(=O)O)CN1C(=O)Cc1ccc(-c2ccc(C(F)(F)F)nc2)cc1 [BnH12083, (3R,6S)-6-methyl-1-(2-(4-(6-(trifluoromethyl)pyridin-3-yl)phenyl)acetyl) piperidine-3-carboxylic acid]",95%<,75%<
"Cc1ccc(-c2ccc(CC(=O)N3C[C@H](C(=O)O)CC[C@@H]3C)cc2)cn1 [BnH12084, (3R,6S)-6-methyl-1-(2-(4-(6-methylpyridin-3-yl)phenyl)acetyl) piperidine-3-carboxylic acid]",80%<,70%<
"C[C@H]1CC[C@@H](C(=O)O)CN1C(=O)Cc1ccc(-c2ccc(-c3ccccc3)nc2)cc1 [BnH12087, (3R,6S)-6-methyl-1-(2-(4-(6-phenylpyridin-3-yl)phenyl)acetyl) piperidine-3-carboxylic acid]",85%<,45%<

# Reference: patent US20250213560A1, “NITROGEN-CONTAINING HETEROCYCLIC COMPOUNDS HAVING PHENYL GROUP AND USES THEREOF” (BNH RESEARCH CO., LTD., priority 2022, published 2025)
